Measured values as given in patent US9278134B2, “Dual functioning ionic liquids and salts thereof” (priority 2008, dated 2016).

Key:
Format in all cases: physicochemical
[1] = Conductivity of propantheline p-toluenesulfonate (PtTos)/water composites
Text: (§1) Viscosity, conductivity and ΔW values for various propantheline p-toluenesulfonate (PtTos)/water composites.

[2] = Viscosity of propantheline p-toluenesulfonate (PtTos)/water composites; settings: * instrument limit
Text: as §1

[3] = Walden plot: ΔW / degree of ionicity; settings: for degree of ionicity (ionized): estimated from the Walden plot (FIG. 7)
Text: Many examples of liquid organic salts are far from fully ionized. Instead, they form ion pairs and aggregates of ions in the liquid state and are better described as Liquid Ion Pairs than “Ionic Liquids”. The distinction between these states can be made on the basis of the behavior of the transport property data when plotted in a Walden plot. The Walden plot is a graph of log equivalent conductivity (corrected for molar volume) vs. log fluidity and thus may be used to estimate the degree of association cations and anions (as correlated motion of cation and anion clusters). […] Liquid Ion Pairs lie beyond this region, i.e., more than one order of magnitude away from the Ideal line. Such liquid salts are less than 10% ionized. Examples of such liquid salts of therapeutic ions include propanthaline tosylate which is about 1% ionized, as estimated from the Walden plot (FIG. 7).
With addition of 25 weight % water, ΔW value decreased. This is true for all of the propantheline p-toluenesulfonate/water systems studied.

CC(C)[N+](C)(CCOC(=O)C1c2ccccc2Oc2ccccc21)C(C)C [PtTos pure, Propantheline p-Toluenesulfonate]
Conductivity (S cm^−1) [1]: 5.41 × 10^−7 S cm^−1 | Viscosity (mPa · s) ± 1% [2]: >2000* mPa · s | distance below the reference line in the Walden plot ([3]; FIG. 7): 2 log units | ΔW (distance form the ideal line) ([3]; Walden plot, PtTos/water composites): 2.0 | degree of ionicity (ionized) [3]: approximately 1% | degree of ionicity (ionized) ([3]; listed as propanthaline tosylate): about 1%
